Measurements taken from US12018267B2, “Plants having increased tolerance to herbicides” (BASF SE, priority 2015, dated 2024).

How the values were obtained:
[1] = system: transgenic Arabidopsis plants with wildtype or mutated cellulose synthase sequences (SEQ ID NO: 1 or 3); test: 48-well plate growth inhibition of transgenic T2 Arabidopsis, relative tolerance rates versus non-transgenic (Table E2-1); type: in vivo, Arabidopsis thaliana; conditions: growth inhibition evaluated seven to ten days after seeding
Description: For transformation of Arabidopsis thaliana, wildtype or mutated cellulose synthase sequences encoding for one of the following protein sequences SEQ ID NO: 1 or 3, are cloned with standard cloning techniques as described in Sambrook et al. (Molecular cloning (2001) Cold Spring Harbor Laboratory Press) in a binary vector containing resistance marker gene cassette (AHAS) and mutated cellulose synthase sequence (marked as GOI) in between ubiquitin promoter (PcUbi) and nopaline synthase terminator (NOS) sequence. Binary plasmids are introduced to Agrobacterium tumefaciens for plant transformation. Arabidopsis thaliana are transformed with wildtype or mutated cellulose synthase sequences by floral dip method as described by McElver and Singh (WO 2008/124495). Transgenic Arabidopsis plants are subjected to TaqMan analysis for analysis of the number of integration loci.
Transgenic Arabidopsis thaliana plants (T2) are assayed for improved tolerance to azine herbicides like e. g. 6-cyclopentyl-N4-(2,3,4,5,6-pentafluorophenyl)-1,3,5-triazine-2,4-diamine in 48-well plates. Therefore, T2 seeds are surface sterilized by stirring for 5 min in ethanol+water (70+30 by volume), rinsing one time with ethanol+water (70+30 by volume) and two times with sterile, deionized water. The seeds are resuspended in 0.1% agar dissolved in water (w/v) Four to five seeds per well are plated on solid nutrient medium consisting of half-strength murashige skoog nutrient solution, pH 5.8 (Murashige and Skoog (1962) Physiologia Plantarum 15: 473-497). Compounds are dissolved in dimethylsulfoxid (DMSO) and added to the medium prior solidification (final DMSO concentration 0.1%). Multi well plates are incubated in a growth chamber at 22° C., 75% relative humidity and 110 μmol Phot*m^−2*s^−1 with 14:10 h light:dark photoperiod. Growth inhibition is evaluated seven to ten days after seeding in comparison to wild type plants. Tolerance factors are calculated based on IC50 values of growth inhibition of transformed versus non-transformed Arabidopsis plants.

[2] = system: wildtype Arabidopsis thaliana; test: Greenhouse pre-emergent treatment of M3 Arabidopsis seeds, phytotox (injury) rating, wildtype; type: in vivo; conditions: 21 days after treatment
Description: (§1) Additionally, M3 Arabidopsis seeds are tested for improved tolerance to CESA-inhibiting herbicides in greenhouse studies with azine compounds like e. g. N2-(4-chloro-3,5,6-trifluoro-2-pyridyl)-6-(1-fluorocyclopentyl)-1,3,5-triazine-2,4-diamine (Table E1-1, see also FIG. 3).

[3] = system: At_CESA1_R292H (SEQ ID 1 - Variant R292H) M3 Arabidopsis plants; test: Greenhouse pre-emergent treatment of M3 Arabidopsis seeds, phytotox (injury) rating, CESA1 R292H variant; type: in vivo, Arabidopsis thaliana; conditions: 21 days after treatment
Description: For selection of cellulose biosynthesis inhibitor resistant plants EMS mutagenized seed populations of Arabidopsis thaliana are used. EMS mutagenized seed populations are either bought from Lehle Seeds (1102 South Industrial Blvd. Suite D, Round Rock, Texas USA) or are generated as described elsewhere (Heim D R, et al. (1989) Plant Physiol. 90: 146-150). Causative mutations in CESA wildtype sequences (e.g. SEQ ID NO: 1 or 3) are identified as described by Scheible W R et al. (2001, Proc. Natl. Acad. of Sci. 98: 10079-10084), McCourt et. al. (WO2013/142968) or with the use of next generation sequencing methods as described by Austin R S, et al. (2011) Plant Journal 67: 715-725.
as §1

[4] = Construct AtCesA1_G1031R, SEQ ID 1, variant G1031R
[5] = Construct AtCesA1_R292H, SEQ ID 1, variant R292H
[6] = Construct AtCesA1_V297M, SEQ ID 1, variant V297M
[7] = Construct AtCesA1_wt, SEQ ID 1, no variant
[8] = Construct AtCesA3_wt, SEQ ID 3, no variant
[9] = Construct AtCesA1_L1011A, SEQ ID 1, variant L1011A
[10] = Construct AtCesA3_F1039L, SEQ ID 3, variant F1039L

Cc1cccc(-n2nc(C(N)=O)nc2-c2ccccc2)c1
Relative tolerance rate of transgenic Arabidopsis plants as compared to non-transgenic (non-transgenic = 1.0) [1, 4]: 13
Relative tolerance rate of transgenic Arabidopsis plants as compared to non-transgenic (non-transgenic = 1.0) [1, 5]: 31
Relative tolerance rate of transgenic Arabidopsis plants as compared to non-transgenic (non-transgenic = 1.0) [1, 6]: 5
Relative tolerance rate of transgenic Arabidopsis plants as compared to non-transgenic (non-transgenic = 1.0) [1, 7]: 3
Relative tolerance rate of transgenic Arabidopsis plants as compared to non-transgenic (non-transgenic = 1.0) [1, 8]: 4

Nc1nc(Nc2nc(F)c(F)c(Cl)c2F)nc(C2(F)CCCC2)n1 [N2-(4-chloro-3,5,6-trifluoro-2-pyridyl)-6-(1-fluorocyclopentyl)-1,3,5-triazine-2,4-diamine]
phytotox value ([2]; 0.5 g ai/ha): 60
phytotox value ([2]; 1 g ai/ha): 65
phytotox value ([2]; 2 g ai/ha): 98
phytotox value ([2]; 4 g ai/ha): 100
phytotox value ([3]; At_CESA1_R292H event A, 0.5 g ai/ha): 10
phytotox value ([3]; At_CESA1_R292H event A, 1 g ai/ha): 10
phytotox value ([3]; At_CESA1_R292H event A, 2 g ai/ha): 45
phytotox value ([3]; At_CESA1_R292H event A, 4 g ai/ha): 94
phytotox value ([3]; At_CESA1_R292H event B, 0.5 g ai/ha): 5
phytotox value ([3]; At_CESA1_R292H event B, 1 g ai/ha): 0
phytotox value ([3]; At_CESA1_R292H event B, 2 g ai/ha): 17.5
phytotox value ([3]; At_CESA1_R292H event B, 4 g ai/ha): 87.5
Relative tolerance rate of transgenic Arabidopsis plants as compared to non-transgenic (non-transgenic = 1.0) [1, 4]: 3
Relative tolerance rate of transgenic Arabidopsis plants as compared to non-transgenic (non-transgenic = 1.0) [1, 9]: 1
Relative tolerance rate of transgenic Arabidopsis plants as compared to non-transgenic (non-transgenic = 1.0) [1, 5]: 1
Relative tolerance rate of transgenic Arabidopsis plants as compared to non-transgenic (non-transgenic = 1.0) [1, 6]: 1
Relative tolerance rate of transgenic Arabidopsis plants as compared to non-transgenic (non-transgenic = 1.0) [1, 7]: 2
Relative tolerance rate of transgenic Arabidopsis plants as compared to non-transgenic (non-transgenic = 1.0) [1, 10]: 1
Relative tolerance rate of transgenic Arabidopsis plants as compared to non-transgenic (non-transgenic = 1.0) [1, 8]: 1

NC(=O)c1nc(-c2ccccc2)n(-c2ccc(Cl)c(COCC(F)(F)C(F)(F)F)c2)n1 [1-[4-chloro-3-(2,2,3,3,3-pentafluoropropoxymethyl)phenyl]-5-phenyl-1,2,4-triazole-3-carboxamide, reference compound]
phytotox value ([2]; 7.8 g ai/ha): 12.5
phytotox value ([2]; 31.25 g ai/ha): 99
phytotox value ([2]; 125 g ai/ha): 100
phytotox value ([2]; 250 g ai/ha): 100
phytotox value ([3]; At_CESA1_R292H event A, 7.8 g ai/ha): 7.5
phytotox value ([3]; At_CESA1_R292H event A, 31.25 g ai/ha): 80
phytotox value ([3]; At_CESA1_R292H event A, 125 g ai/ha): 100
phytotox value ([3]; At_CESA1_R292H event A, 250 g ai/ha): 100
phytotox value ([3]; At_CESA1_R292H event B, 7.8 g ai/ha): 25
phytotox value ([3]; At_CESA1_R292H event B, 31.25 g ai/ha): 52.5
phytotox value ([3]; At_CESA1_R292H event B, 125 g ai/ha): 100
phytotox value ([3]; At_CESA1_R292H event B, 250 g ai/ha): 100
Relative tolerance rate of transgenic Arabidopsis plants as compared to non-transgenic (non-transgenic = 1.0) [1, 9]: 7
Relative tolerance rate of transgenic Arabidopsis plants as compared to non-transgenic (non-transgenic = 1.0) [1, 10]: 3
